Patent US20030162300A1, “Galactomannan-oligosaccharides and methods for the production and use thereof” (priority 1999, published 2003)

How the values were obtained:
[1] = test system: resected colon pieces (distal segment); assay: Mucus secretion of resected colon pieces; format: cell-based; conditions: pig colon pieces, 5 h, 37°, Hanks buffer; galactomanno-oligosaccharides 1%
Method: After thoroughly cleaning the resected colon of a freshly slaughtered pig, pieces measuring 1 cm^2 were cut from the distal segment of said colon. The pieces thus prepared were incubated, while stirring and fumigating with oxygen, for 5 h at a temperature of 37° in Hanks buffer to which chloramphenicol and ampicillin (50 μg/mL each) had been added. The buffer additionally contained 1% of the galactomanno-oligosaccharides produced according to the present invention and to be tested for their stimulating effect on the mucus secretion. As a control, 10 colon segments were used in each batch to be tested. One of the batches contained hydrocortisone which is normally used in the treatment of inflammatory intestinal diseases.
As a measure for an increase in the mucus secretion, the increase in the total carbohydrate content in the supernatant portion was measured. For this purpose, during the incubation, samples were collected at various times, and 20 μL of resorcin solution (6 mg/mL) and 100 μL of 75% sulfuric acid were added to 10 μL of each sample, and after an incubation time of 60 min at 80° C., the extinction was measured at λ=450 nm.

[2] = test system: Reh(pre-B) on the colon cell line HT 29; assay: Adhesion assay: Reh (pre-B) on the colon cell line HT 29; format: cell-based; conditions: 10 μg/batch; for Mittelwert (%) (mean value), specific adhesion: percentage of the 100% value; for Index: relative to without carbohydrate = 1.00
Method: In the adhesion assay, the influence of galactomanno-oligosaccharides according to the present invention on the adhesion of B cell lines (for example, Reh) and normal human B lymphocytes to epithelial cells (colon tumor line HT 29) was measured. In the overlay assay used, the lymphocytes were intracellularly marked with calcein so as to make it possible to carry out the measurement by means of fluorometry.
First, coating with the adherent colon epithelial cell one (HT 29) in microtiter plates (24-hole Costar® plates) took place, with incubation (37° C., overnight) until a confluent bed has formed. This is done as much as possible in a serum-free medium Inoculum: 1×10^4 cells. Before the subsequent assay was carried out, the adherent cells were washed three times with PBS(phosphate-buffered physiological saline solution) and blocked for 1 h at room temperature with PBS+1% bovine serum albumin (BSA).
The untreated B cell lines or isolated B lymphocytes to be tested were marked with fluorescent calcein (1×10^7 cells in 2 mL of RPMI medium+HEPES+10 μL of calcein AM, 30 min, 37° C.; subsequently washed 2× with HBSS (Hanks buffer)+0.25% BSA) and 1×10^6 cells in 0.5 mL of PBS+0.25% […] per hole were incubated for 1 h. The culture plate was placed on a shaker for 10 sec, 0.5 mL of 0.2% glutaraldehyde in PBS+0.2% BSA per hole were added and incubated for 10 min on the shaker. The fluorescence of the plate was measured in a fluorescence measuring device ([…]).
The first measurement corresponds to the 100% value. Subsequently, the plate was washed four times and again measured. This measurement corresponds to the specific adhesion which is expressed as a percentage of the 100% value minus the autofluorescence value (unmarked cells). The control substances used were galactose and glucose.

granulocytes = assay: Phagocytosis assay, granulocytes; format: cell-based; conditions: 100 μg/batch, whole blood
Method: (§1) The influence of the galactomanno-oligosaccharides according to the present invention on the function of the phagocytes (mono-, granulocytes) can be determined by means of phagocytosis assays. During the phagocytosis stimulation, the phagocytes were first incubated with galactomanno-oligosaccharides (100 μg of glycan/0. 11 mL of whole blood, 37° C., 10 min). A corresponding blank was incubated for 10 min in an ice bath. Subsequently, the actual phagocytosis test was carried out under the following conditions:
(§2) 0.11 mL of the preliminary incubation solution was allowed to stand for 10 min in the ice bath; subsequently, 0.01 mL of nonopsonized E. coli (fluorescein isothiocyanate (FITC) marked, 10^9 per mL, ORPEGEN) or 0.01 mL of nonopsonized Staphylococcus aureus (15×10^6 per mL, FITC marked, MOLECULAR PROBES) were added. The batches were incubated (double determinations) for 10 min at 37° C. The batches were washed twice with 3 mL of washing buffer (ORPEGEN) each and centrifuged at 250×g for 5 min at 4° C. […]
(§3) The measurement was carried out in the flow cytometer (excitation: 488 nm, emission FL-1: 520 nm); monocytes and granulocytes can be distinguished from each other without separation (forward light scatter (FSC) versus ([…]) (sideways light scatter). The results are expressed as a percentage of the phagocytosis-positive cells (see Table VI below). […]

E. coli, 2 strains = assay: Adhesion of pathogenic microorganisms to human uroepithelial cells, E. coli; format: cell-based; conditions: human uroepithelial cells preincubated with the carbohydrate
Method: (§4) Human uroepithelial cells obtained by means of centrifugation from first morning urine
(§5) Staphylococcus aureus, 2 strains, and E. coli, 2 strains, each as suspension with 10^9 microorganisms/mL
(§6) The epithelial cells and the suspension of microorganisms were combined and incubated for 30 min at 37° C. Subsequently, the epithelial cells were separated from the nonadherent microorganisms by means of membrane filtration (8 μ). The filters were repeatedly washed and placed into physiological saline solution, and the epithelial cells were suspended in said solution. After centrifuging the suspension in saline solution, the pellet was placed on a microscopic slide and stained according to May-Grünwald and Giemsa. The number of the microorganisms adhering to 50 epithelial cells as counted. The number represented the blank reading. Epithelial cells without the addition of a suspension of microorganisms served as the control.
(§7) In the main test, epithelial cells were first incubated for 1, 2, and 3 h with galactomanno-oligosaccharide solutions of different concentrations. They were subsequently combined with the suspension of microorganisms and treated as described above. The number of microorganisms adhering to 50 epithelial cells represented the measured value.

[3] = test system: Staphylococcus aureus, 2 strains; assay: Adhesion of pathogenic microorganisms to human uroepithelial cells, Staphylococcus aureus; format: cell-based; conditions: human uroepithelial cells preincubated with the carbohydrate
Method: as §4, §5, §6, §7

monocytes = assay: Phagocytosis assay, monocytes; format: cell-based; conditions: E. coli nonopsonized, 100 μg/batch, whole blood
Method: as §1, §2, §3

[4] = Stability in the stomach: hydrolysis rate at pH 1.0 and 2.0; format: physicochemical; conditions: 37° C.
Method: For this purpose, 1% galactomanno-oligosaccharide solutions were incubated for 3 h at a pH value of 1.0 (0.1 M HCl) and a pH value of 2.0 (0.01 M HCl) and a temperature of 37° C. After 60, 120, and 180 min, samples were taken from the reaction batch and analyzed by means of HPAEC. The control substances used were saccharose and 1-kestose.

[5] = target: T1, saccharase/isomaltase (SI complex) (Sus scrofa, UniProt P56729); assay: Cleavability by alpha-glucosidases of the small intestine, SI complex; format: in vitro ADME, pigs; conditions: SI enzyme complex 0.7 U, 1% in TRA buffer pH 7.0, 2 h, 37° C.
T1 construct: were isolated from the thin intestine of pigs using the method described by H. Heymann; from tissue; host or cells: pig small intestine (mucous membrane)
T1 sequence (P56729 with tags, fused parts or gaps): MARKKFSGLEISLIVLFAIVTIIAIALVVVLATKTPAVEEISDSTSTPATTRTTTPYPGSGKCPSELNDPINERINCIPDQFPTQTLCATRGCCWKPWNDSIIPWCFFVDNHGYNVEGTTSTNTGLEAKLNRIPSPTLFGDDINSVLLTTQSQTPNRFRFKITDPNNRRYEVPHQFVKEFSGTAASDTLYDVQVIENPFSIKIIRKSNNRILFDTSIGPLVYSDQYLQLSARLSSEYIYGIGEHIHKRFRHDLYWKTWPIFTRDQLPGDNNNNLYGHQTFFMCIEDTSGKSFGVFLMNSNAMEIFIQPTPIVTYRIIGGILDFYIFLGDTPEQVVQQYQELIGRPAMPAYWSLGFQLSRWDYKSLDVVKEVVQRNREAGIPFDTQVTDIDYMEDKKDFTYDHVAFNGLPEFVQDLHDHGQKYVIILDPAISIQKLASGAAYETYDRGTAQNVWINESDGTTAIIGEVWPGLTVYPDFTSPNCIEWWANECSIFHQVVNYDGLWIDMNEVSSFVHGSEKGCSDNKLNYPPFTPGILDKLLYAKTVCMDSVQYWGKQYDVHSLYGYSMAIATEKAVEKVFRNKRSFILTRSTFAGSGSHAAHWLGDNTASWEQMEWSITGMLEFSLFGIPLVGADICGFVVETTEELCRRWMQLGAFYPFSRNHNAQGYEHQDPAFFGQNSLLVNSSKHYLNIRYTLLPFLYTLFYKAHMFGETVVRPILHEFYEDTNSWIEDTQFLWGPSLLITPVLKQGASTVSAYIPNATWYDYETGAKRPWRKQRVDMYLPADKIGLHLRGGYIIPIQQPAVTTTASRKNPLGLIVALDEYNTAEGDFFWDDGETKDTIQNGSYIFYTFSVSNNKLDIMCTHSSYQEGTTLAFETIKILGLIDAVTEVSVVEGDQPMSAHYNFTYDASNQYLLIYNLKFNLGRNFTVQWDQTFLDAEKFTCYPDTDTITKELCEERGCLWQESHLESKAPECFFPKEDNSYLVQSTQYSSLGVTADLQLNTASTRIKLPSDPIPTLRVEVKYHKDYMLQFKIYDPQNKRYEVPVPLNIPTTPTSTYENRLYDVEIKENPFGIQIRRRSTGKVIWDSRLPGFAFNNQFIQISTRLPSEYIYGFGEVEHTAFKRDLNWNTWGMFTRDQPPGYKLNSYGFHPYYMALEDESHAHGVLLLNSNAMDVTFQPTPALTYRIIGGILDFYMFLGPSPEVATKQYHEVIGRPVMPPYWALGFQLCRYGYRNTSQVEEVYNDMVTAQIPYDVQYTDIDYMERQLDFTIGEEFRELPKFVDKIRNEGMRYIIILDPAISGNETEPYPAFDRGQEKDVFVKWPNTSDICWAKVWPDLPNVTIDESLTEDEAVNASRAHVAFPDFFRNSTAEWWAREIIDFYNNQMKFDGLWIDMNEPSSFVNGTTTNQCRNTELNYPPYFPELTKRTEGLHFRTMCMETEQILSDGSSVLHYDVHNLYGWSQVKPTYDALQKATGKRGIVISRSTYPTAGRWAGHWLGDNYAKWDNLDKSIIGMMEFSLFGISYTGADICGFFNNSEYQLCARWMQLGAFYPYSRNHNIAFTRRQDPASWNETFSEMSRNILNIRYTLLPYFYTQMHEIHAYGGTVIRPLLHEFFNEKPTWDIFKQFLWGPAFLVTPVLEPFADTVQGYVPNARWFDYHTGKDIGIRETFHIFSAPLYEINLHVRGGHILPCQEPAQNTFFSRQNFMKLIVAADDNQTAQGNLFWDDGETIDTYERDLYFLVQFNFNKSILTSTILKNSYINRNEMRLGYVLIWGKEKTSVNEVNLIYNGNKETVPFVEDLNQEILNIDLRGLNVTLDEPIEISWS
Text: In vivo, the enzyme complexes saccharase/isomaltase and glucoamylase/maltase which are present in the mucous membranes of the small intestine ensure that after their passage into the small intestine, the disaccharides maltose and saccharose and in part also the malto-oligosaccharides are cleaved to form monosaccharides and as such are able to reach the circulatory system via the intestinal wall.
The stability of the galactomanno-oligosaccharides according to the present invention against these enzymes was tested as follows:
The enzyme complexes saccharase/isomaltase (SI complex) and glucoamylase/maltase (GM complex) were isolated from the thin intestine of pigs using the method described by H. Heymann (dissertation, Hannover, 1991).
The cleavability of the galactomanno-oligosaccharides according to the present invention by means of a-glucosidases present in the small intestine was determined as follows:
Triethanolamine (TRA) buffer, 0.1 M, pH 7.0
Galactomanno-oligosaccharides, 1% solution in TRA buffer
Maltose and saccharose as control substances, 1% in TRA buffer […]
At t=0, 0.7 U of the enzyme complex saccharase/isomaltase or glucoamylase/maltase were added to 1.2 mL of the carbohydrate solution which had been heated to a temperature of 37° C., mixed, and incubated at 37° C. […] The monosaccharides formed as well as the test substances used were quantitatively determined by means of HPAEC.

[6] = test system: Streptococcus sobrinus NCTC 10922; assay: Stability in the mouth: incubation with Streptococcus sobrinus; format: in vitro ADME; conditions: 1% in 20 mM carbonate buffer pH 7.5, 37° C., 2 h (120 min)
Method: (§8) Streptococcus mutans and Streptococcus sobrinus were cultivated for 24 h in liquid DSM medium 92 under anaerobic conditions at 37° C. At the end of the logarithmic growth phase, the cells were centrifuged off (15 min, 4000×g) and resuspended in 10% of the original 20 mM carbonate buffer, pH 7.5. Subsequently, 9 mL of a solution of the oligosaccharides according to the present invention (1% in 20 mM carbonate buffer, pH 7.5) were inoculated with 1 mL of the bacterial suspension and incubated for 2 h at 37° C.

[7] = test system: fresh tooth plaque (mixed culture); assay: Stability in the mouth: incubation with fresh tooth plaque; format: in vitro ADME, male volunteers; conditions: 10 mg plaque in 1 mL 1% solution, pH 7.5, 37° C., 2 h (120 min)
Method: Plaque samples were obtained from three male volunteers who had not brushed their teeth for three days, and in each case, 10 mg of the plaque were suspended in 1 mL of oligosaccharide solution (1% in 20 mM carbonate buffer, pH 7.5). In the course of the two-hour-long incubation time at 37° C., samples were taken and tested for their oligosaccharide content.

[8] = test system: Streptococcus mutans DSM 20523; assay: Stability in the mouth: incubation with Streptococcus mutans; format: in vitro ADME; conditions: 1% in 20 mM carbonate buffer pH 7.5, 37° C., 2 h (120 min)
Method: as §8

Structure (SMILES): C[C@]12CCC(=O)C=C1CC[C@@H]1[C@@H]2[C@@H](O)C[C@@]2(C)[C@H]1CC[C@]2(O)C(=O)CO [hydrocortisone]
- increase in the mucus secretion compared to the control (total carbohydrate in supernatant) [1]: approximately 5.3 -fold

Structure (SMILES): O=C[C@H](O)[C@@H](O)[C@H](O)[C@H](O)CO [D-Glucose]
- Mittelwert (%) (mean value), specific adhesion [2]: 47%
- Index [2]: 1.11

Structure (SMILES): OC[C@H]1O[C@H](OC[C@H]2O[C@H](O[C@]3(CO)O[C@H](CO)[C@@H](O)[C@@H]3O)[C@H](O)[C@@H](O)[C@@H]2O)[C@H](O)[C@@H](O)[C@H]1O [raffinose]
- Granulocyten (% positive Zellen), phagocytosis-positive cells (granulocytes; E. coli nonopsonized): 17.0%
- Granulocyten (% positive Zellen), phagocytosis-positive cells (granulocytes; Staph. aureus nonopsonized): 30.0%
- number of microorganisms adhering to the epithelial cells (E. coli, 2 strains): not reduced
- number of microorganisms adhering to the epithelial cells [3]: not reduced
- Monocyten (% positive Zellen), phagocytosis-positive cells (monocytes): 22.0%

Structure (SMILES): OC[C@H]1O[C@H](O[C@]2(CO)O[C@H](CO[C@H]3O[C@H](CO)[C@@H](O)[C@H](O)[C@H]3O)[C@@H](O)[C@@H]2O)[C@H](O)[C@@H](O)[C@@H]1O [isomelzitose]
- number of microorganisms adhering to the epithelial cells (E. coli, 2 strains): not reduced
- number of microorganisms adhering to the epithelial cells [3]: not reduced

Structure (SMILES): O=C[C@H](O)[C@@H](O)[C@@H](O)[C@H](O)CO [D-Galactose]
- Mittelwert (%) (mean value), specific adhesion [2]: 51%
- Index [2]: 1.12

Structure (SMILES): OC[C@H]1O[C@@](CO)(OC[C@@]2(O[C@H]3O[C@H](CO)[C@@H](O)[C@H](O)[C@H]3O)O[C@H](CO)[C@@H](O)[C@@H]2O)[C@@H](O)[C@@H]1O [1-Kestose, 1-kestose]
- Hydrolysis rate in % ([4]; pH 1 (0.1 M HCl), 60 min): 90%
- Hydrolysis rate in % ([4]; pH 1 (0.1 M HCl), 120 min): 100%
- Hydrolysis rate in % ([4]; pH 1 (0.1 M HCl), 180 min): 100%
- Hydrolysis rate in % ([4]; pH 2 (0.01 M HCl), 60 min): 16%
- Hydrolysis rate in % ([4]; pH 2 (0.01 M HCl), 120 min): 30%
- Hydrolysis rate in % ([4]; pH 2 (0.01 M HCl), 180 min): 43%

Structure (SMILES): OC[C@H]1O[C@@](CO)(O[C@H]2O[C@H](CO)[C@@H](O)[C@H](O)[C@H]2O)[C@@H](O)[C@@H]1O [Saccharose, saccharose]
- Hydrolyserate (%) (Hydrolysis rate) [5]: 98%
- cleavage/hydrolysis of the carbohydrate [6]: completely hydrolyzed
- cleavage/hydrolysis of the carbohydrate [7]: completely hydrolyzed
- Hydrolysis rate in % ([4]; pH 1 (0.1 M HCl), 60 min): 24%
- Hydrolysis rate in % ([4]; pH 1 (0.1 M HCl), 120 min): 55%
- Hydrolysis rate in % ([4]; pH 1 (0.1 M HCl), 180 min): 61%
- Hydrolysis rate in % ([4]; pH 2 (0.01 M HCl), 60 min): 1%
- Hydrolysis rate in % ([4]; pH 2 (0.01 M HCl), 120 min): 2%
- Hydrolysis rate in % ([4]; pH 2 (0.01 M HCl), 180 min): 7%
- cleavage/hydrolysis of the carbohydrate [8]: completely hydrolyzed

Structure (SMILES): OC[C@H]1O[C@@](CO)(OC[C@@]2(OC[C@@]3(O[C@H]4O[C@H](CO)[C@@H](O)[C@H](O)[C@H]4O)O[C@H](CO)[C@@H](O)[C@@H]3O)O[C@H](CO)[C@@H](O)[C@@H]2O)[C@@H](O)[C@@H]1O [nystose]
- number of microorganisms adhering to the epithelial cells (E. coli, 2 strains): not reduced
- number of microorganisms adhering to the epithelial cells [3]: not reduced
